Reference: publication PMC12439166, “Dietary flavonoids form supramolecular assemblies, alter biochemistry, and enhance cell resilience” (Frontiers in Nutrition, 2025)

What was measured:
Format in all cases: biochemical
[1] = target: T1, Lysine demethylase 4C (KDM4C) (Homo sapiens, UniProt Q9H3R0); assay: Enzyme activity assay (SAMDI-MS), KDM4C; settings: 10 concentrations, 5 nM to 100 μM, compounds incubated with enzyme 30 min, result in words
T1 sequence (Q9H3R0 1-1056): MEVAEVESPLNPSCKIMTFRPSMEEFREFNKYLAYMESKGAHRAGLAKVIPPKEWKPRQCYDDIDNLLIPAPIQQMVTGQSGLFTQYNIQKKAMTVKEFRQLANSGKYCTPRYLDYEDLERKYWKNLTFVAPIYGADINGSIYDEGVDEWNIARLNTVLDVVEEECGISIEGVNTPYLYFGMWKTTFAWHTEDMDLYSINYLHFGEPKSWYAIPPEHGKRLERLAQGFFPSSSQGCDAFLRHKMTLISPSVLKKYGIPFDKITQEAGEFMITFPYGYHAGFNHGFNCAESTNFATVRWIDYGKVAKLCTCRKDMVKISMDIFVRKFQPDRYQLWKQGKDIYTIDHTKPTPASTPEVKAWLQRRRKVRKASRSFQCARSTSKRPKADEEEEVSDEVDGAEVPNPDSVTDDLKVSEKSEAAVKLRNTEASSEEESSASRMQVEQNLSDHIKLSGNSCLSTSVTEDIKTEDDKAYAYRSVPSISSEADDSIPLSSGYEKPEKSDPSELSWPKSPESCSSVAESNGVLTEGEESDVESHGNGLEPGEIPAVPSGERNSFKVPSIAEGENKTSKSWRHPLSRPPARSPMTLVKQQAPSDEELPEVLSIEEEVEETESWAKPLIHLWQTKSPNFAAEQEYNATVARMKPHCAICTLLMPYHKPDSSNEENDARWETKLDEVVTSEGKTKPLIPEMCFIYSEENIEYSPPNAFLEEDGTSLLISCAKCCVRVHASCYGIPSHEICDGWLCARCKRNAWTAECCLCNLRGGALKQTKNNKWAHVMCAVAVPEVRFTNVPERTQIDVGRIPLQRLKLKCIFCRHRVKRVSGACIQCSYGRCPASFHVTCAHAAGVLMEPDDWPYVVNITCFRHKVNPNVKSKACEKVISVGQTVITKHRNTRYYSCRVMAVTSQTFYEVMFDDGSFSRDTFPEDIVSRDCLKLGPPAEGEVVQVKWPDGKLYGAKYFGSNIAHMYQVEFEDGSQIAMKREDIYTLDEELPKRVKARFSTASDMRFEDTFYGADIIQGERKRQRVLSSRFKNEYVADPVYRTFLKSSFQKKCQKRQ
Experimental: (§1) Enzyme screens were performed by SAMDI Tech (contract research organization); enzyme assays were performed in a 20 μL volume in 384-well low-volume polypropylene microtiter plates (Greiner Bio-One) at room temperature. The enzymes [Arginase 1 (ARG1), Lysine demethylase 4C (KDM4C), MAP/microtubule affinity-regulating kinase 4 (MARK4), Histone-Lysine N-methyltransferase (NSD2), Tyrosine-protein phosphatase non-receptor type 1 (PTP1B), and Sirtuin-3 (SIRT3)] were incubated with compounds for 30 min prior to initiation of the reaction by the addition of substrate and cofactors (if required). Reactions were quenched by the addition of 0.5% formic acid (final) with subsequent neutralization using 1% sodium bicarbonate (final). For SAMDI MS analysis, 2 μL of each reaction was transferred using a 384-channel automated liquid handler to SAMDI biochip arrays functionalized with a neutravidin-presenting self-assembled monolayer. The preparation of SAMDI biochip arrays has been previously described ([41], [42], [49]). The SAMDI arrays were incubated for 1 h in a humidified chamber to allow specific immobilization of the biotinylated substrates and products; they were then purified by washing with ultrafiltered water (50 μL/spot) and dried with compressed air. A matrix comprising α-Cyano-4-hydroxycinnamic acid in 80% acetonitrile: 20% aqueous ammonium citrate (10 mg/mL final) was applied in an automated format by dispensing 50 nL to each spot in the array. SAMDI MS was performed using reflector positive mode on an AB Sciex TOF-TOF 5800 System (AB Sciex, Framingham, MA) with 400 shots/spot analyzed in a random raster sampling. For data analysis, the area under the curves (AUCs) for the product peak and substrate peak were calculated using the TOF/TOF Series Explorer (AB Sciex), and the amount of product formed was calculated using the equation AUC product / (AUC product + AUC Substrate). Negative controls were pre-quenched with 0.5% formic acid (final). Lysozyme assay was performed using the manufacturer’s instructions (Biovision Lysozyme inhibitor screening kit K237). Flavonoids were acquired from Sigma-Aldrich and Seleckchem.
(§2) IC50 values of enzyme inhibition. Inhibition of the enzymes was measured at 10 concentration values in the range of 5 nM to 100 μM for each compound and enzyme, with two technical replicates; the percent inhibition values were determined by SAMDI software. Sigmoidal curves were fitted to the percent inhibition vs log10 (concentration) series, and IC50 values were determined at the crossing point of 50 % inhibition. Manual verification of the fits and the IC50 values was performed. The resulting IC50 values fell into the following categories: (a) within the assayed range of 5nM to 100μM (26 % of fits), (b) IC50 could be extrapolated, IC50 > 100μM (12 % of fits), or (c) fitting was not possible because all values were at baseline (62 % of fits). Compound efficacy ranking. First, for each IC50 value per compound and enzyme, a Z-score was calculated based on the log10 (IC50) value and that of the compounds that produced a successful readout for enzyme i , according to Equation 1: […]

[2] = target: T2, Lysozyme (Gallus gallus, UniProt P00698); assay: Lysozyme assay (Biovision Lysozyme inhibitor screening kit K237); settings: 10 concentrations, 5 nM to 100 μM, result in words
T2 construct: purchased Biovision K237
T2 sequence (P00698 19-147): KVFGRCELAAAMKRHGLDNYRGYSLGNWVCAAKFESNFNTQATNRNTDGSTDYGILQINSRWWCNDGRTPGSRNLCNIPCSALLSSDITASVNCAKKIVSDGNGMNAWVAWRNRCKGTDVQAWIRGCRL
Experimental: as §1, §2

[3] = target: T3, Tyrosine-protein phosphatase non-receptor type 1 (PTP1B) (Homo sapiens, UniProt P18031); assay: Enzyme activity assay (SAMDI-MS), PTP1B; settings: 10 concentrations, 5 nM to 100 μM, compounds incubated with enzyme 30 min, result in words
T3 sequence (P18031 1-435): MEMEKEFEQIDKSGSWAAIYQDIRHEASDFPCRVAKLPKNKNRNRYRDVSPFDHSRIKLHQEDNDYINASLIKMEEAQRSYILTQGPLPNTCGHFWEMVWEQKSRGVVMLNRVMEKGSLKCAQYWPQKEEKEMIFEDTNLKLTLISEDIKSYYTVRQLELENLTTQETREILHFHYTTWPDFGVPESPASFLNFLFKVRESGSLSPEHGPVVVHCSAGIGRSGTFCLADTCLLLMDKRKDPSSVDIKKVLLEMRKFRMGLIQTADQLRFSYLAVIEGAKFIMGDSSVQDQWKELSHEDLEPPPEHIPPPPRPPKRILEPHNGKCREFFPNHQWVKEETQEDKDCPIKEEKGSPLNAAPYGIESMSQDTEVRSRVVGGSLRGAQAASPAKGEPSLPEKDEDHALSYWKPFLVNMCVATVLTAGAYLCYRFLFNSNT
Experimental: as §1
IC50 values of enzyme inhibition. Inhibition of the enzymes was measured at 10 concentration values in the range of 5 nM to 100 μM for each compound and enzyme, with two technical replicates; the percent inhibition values were determined by SAMDI software. Sigmoidal curves were fitted to the percent inhibition vs log10 (concentration) series, and IC50 values were determined at the crossing point of 50 % inhibition. […] First, for each IC50 value per compound and enzyme, a Z-score was calculated based on the log10 (IC50) value and that of the compounds that produced a successful readout for enzyme i , according to Equation 1: […]

| Structure (SMILES) | inhibition of enzyme activity, KDM4C [1] | inhibition of enzyme activity, KDM4C ([1]; listed as Quercetin) | inhibition of enzyme activity, KDM4C ([1]; listed as Quercitin) | inhibition of enzyme activity, Lysozyme [2] | inhibition of enzyme activity, Lysozyme ([2]; listed as Quercetin) | inhibition of enzyme activity, Lysozyme ([2]; listed as Quercitin) | inhibition of enzyme activity, PTP1B ([3]; listed as Quercetin) | inhibition of enzyme activity, PTP1B ([3]; listed as Quercitin) | inhibition of enzyme activity, PTP1B [3] |
| --- | --- | --- | --- | --- | --- | --- | --- | --- | --- |
| O=c1c(O)c(-c2ccc(O)c(O)c2)oc2cc(O)cc(O)c12 [quercetin] | blocked | inhibited | concentration-dependent inhibition | blocked | inhibited | concentration-dependent inhibition | inhibited | concentration-dependent inhibition | – |
| C[C@@H]1O[C@@H](Oc2c(-c3ccc(O)c(O)c3)oc3cc(O)cc(O)c3c2=O)[C@H](O)[C@H](O)[C@H]1O [quercitrin] | blocked | – | – | blocked | – | – | – | – | did not affect |
| O=c1c(O[C@@H]2O[C@H](CO)[C@@H](O)[C@H](O)[C@H]2O)c(-c2ccc(O)c(O)c2)oc2cc(O)cc(O)c12 [isoquercitrin] | blocked | – | – | blocked | – | – | – | – | not |
